Assay results published in patent US6737383B1, “Herbicidal oxadiazolidines” (priority 1999, dated 2004).

Key:
blackgrass = assay: Test B pre/postemergence blackgrass; assay type: in vivo, Alopecurus myosuroides
Procedure, shortened: (§1)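 Response is a visual 0-to-10 score relative to untreated plants, where 0 means no effect and 10 means complete control, taken twelve to sixteen days after application. Treatments went onto soil at planting and onto foliage of 1- to 4-leaf plants, using a surfactant-containing non-phytotoxic solvent.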

surinam grass = assay: Test B pre/postemergence surinam grass; assay type: in vivo, Brachiaria decumbens
Procedure, shortened: as §1

sugar beet = assay: Test B pre/postemergence sugar beet; assay type: in vivo, Beta vulgaris
Procedure, shortened: as §1

bamyardgrass = assay: Test B flood test barnyardgrass; assay type: in vivo, Echinochloa crus-galli
Procedure, shortened: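 Each value is a visual injury score relative to controls, with 10 meaning complete control and 0 no effect. Evaluation took place twelve to sixteen days after the 2-leaf-stage plants were treated and kept in the greenhouse.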

[1] = Postemergence, Rate 62 g/ha, scale 0 to 10, 0 is no effect, 10 is complete control
[2] = Postemergence, Rate 250 g/ha, scale 0 to 10, 0 no effect, 10 complete control
[3] = Preemergence, Rate 62 g/ha, scale 0 to 10 (0 no effect, 10 complete control)
[4] = Preemergence, Rate 125 g/ha, scale 0 to 10 (0 no effect, 10 complete control)
[5] = Preemergence, Rate 250 g/ha, scale of 0 to 10 where 0 is no effect and 10 is complete control
[6] = Preemergence, Rate 500 g/ha, scale 0 (no effect) to 10 (complete control)
[7] = Rate 125 g/ha, Postemergence, scale 0 to 10, 0 no effect, 10 complete control
[8] = Rate 500 g/ha, Postemergence, scale 0 to 10, 0 no effect, 10 complete control
[9] = Rate 500 g/ha, Postemergence, scale of 0 to 10 where 0 is no effect and 10 is complete control
[10] = Rate 125 g/ha, Postemergence section (flood test species), scale 0 to 10, 0 no effect, 10 complete control
[11] = Rate 500 g/ha, listed under Postemergence (flood test species), scale 0 to 10, 0 no effect, 10 complete control
[12] = flood test, listed under Postemergence, Rate 250 g/ha, scale 0 to 10, 0 no effect, 10 complete control

Structure (SMILES)	Blackgrass plant response rating (blackgrass; [1])	Blackgrass plant response rating (blackgrass; [2])	Blackgrass plant response rating (blackgrass; [3])	Plant response rating, Blackgrass (blackgrass; [4])	Plant response rating, Blackgrass (blackgrass; [5])	Blackgrass plant response rating (blackgrass; [6])	Blackgrass plant response rating (blackgrass; [7])	Blackgrass plant response rating (blackgrass; [8])	B. signalgrass plant response rating (surinam grass; [1])	B. signalgrass plant response rating (surinam grass; [2])	B. signalgrass plant response rating (surinam grass; [3])	Plant response rating, B. signalgrass (surinam grass; [4])	Plant response rating, B. signalgrass (surinam grass; [5])	B. signalgrass plant response rating (surinam grass; [6])	B. signalgrass plant response rating (surinam grass; [7])	B. signalgrass plant response rating (surinam grass; [9])	Sugarbeets plant response rating (sugar beet; [1])	Sugarbeets plant response rating (sugar beet; [2])	Sugarbeets plant response rating (sugar beet; [3])	Plant response rating, Sugarbeets (sugar beet; [4])	also measured
COc1cccc(C)c1-n1c(=O)on(C(=O)N(c2ccc(F)cc2)C(C)C)c1=O [Compound 62]	0	0	0	0	2	4	0	2	0	2	0	0	0	0	0	4	0	0	0	0	Plant response rating, Sugarbeets (sugar beet; [5]): 0; Sugarbeets plant response rating (sugar beet; [6]): 0; Sugarbeets plant response rating (sugar beet; [7]): 0; Sugarbeets plant response rating (sugar beet; [8]): 5; Barnyardgrass plant response rating (bamyardgrass; [1]): 0; Barnyardgrass plant response rating (bamyardgrass; [10]): 0; Barnyardgrass plant response rating (bamyardgrass; [11]): 0; Barnyardgrass plant response rating (bamyardgrass; [12]): 0
CCN(Cc1ccccc1)C(=O)n1oc(=O)n(-c2ccccc2C)c1=O [Compound 71]	0	0	0	0	0	0	0	0	0	0	0	0	0	0	0	0	0	0	0	0	Plant response rating, Sugarbeets (sugar beet; [5]): 0; Sugarbeets plant response rating (sugar beet; [6]): 0; Sugarbeets plant response rating (sugar beet; [7]): 0; Sugarbeets plant response rating (sugar beet; [8]): 0; Barnyardgrass plant response rating (bamyardgrass; Rate 62 g/ha, headed Pre-emergence (flood test species), scale 0 to 10 (0 no effect, 10 complete control)): 0; Barnyardgrass plant response rating (bamyardgrass; Rate 125 g/ha, Pre-emergence, flood test species, scale 0 to 10 where 0 is no effect and 10 is complete control): 0; Barnyardgrass plant response rating (bamyardgrass; Rate 250 g/ha, headed Pre-emergence (flood test species), scale 0 to 10 (0 no effect, 10 complete control)): 0; Plant response rating, Barnyardgrass (bamyardgrass; Rate 500 g/ha, headed Pre-emergence (flood test species), scale 0 to 10 (0 no effect, 10 complete control)): 0
COc1cccc(C)c1-n1c(=O)on(C(=O)N(c2ccccc2)C(C)C)c1=O [Compound 73]	0	0	0	0	0	0	0	2	0	0	0	0	0	0	0	3	0	0	0	0	Plant response rating, Sugarbeets (sugar beet; [5]): 0; Sugarbeets plant response rating (sugar beet; [6]): 0; Sugarbeets plant response rating (sugar beet; [7]): 0; Sugarbeets plant response rating (sugar beet; [8]): 0; Barnyardgrass plant response rating (bamyardgrass; [1]): 0; Barnyardgrass plant response rating (bamyardgrass; [10]): 0; Barnyardgrass plant response rating (bamyardgrass; [11]): 0; Barnyardgrass plant response rating (bamyardgrass; [12]): 0
Cc1nn(C)c(C)c1-n1c(=O)on(C(=O)N(c2ccc(F)cc2F)C(C)C)c1=O [Compound 76]	0	6	0	2	4	8	2	8	0	5	0	0	2	8	0	9	0	2	0	0	Plant response rating, Sugarbeets (sugar beet; [5]): 0; Sugarbeets plant response rating (sugar beet; [6]): 0; Sugarbeets plant response rating (sugar beet; [7]): 0; Sugarbeets plant response rating (sugar beet; [8]): 3; Barnyardgrass plant response rating (bamyardgrass; [1]): 0; Barnyardgrass plant response rating (bamyardgrass; [10]): 0; Barnyardgrass plant response rating (bamyardgrass; [11]): 0; Barnyardgrass plant response rating (bamyardgrass; [12]): 0
CN(C(=O)n1oc(=O)n(Cc2cccs2)c1=O)c1ccccc1 [Compound 83]	0	0	0	0	0	0	0	0	0	0	0	0	0	0	0	0	0	0	0	0	Plant response rating, Sugarbeets (sugar beet; [5]): 0; Sugarbeets plant response rating (sugar beet; [6]): 0; Sugarbeets plant response rating (sugar beet; [7]): 0; Sugarbeets plant response rating (sugar beet; [8]): 0; Barnyardgrass plant response rating (bamyardgrass; [1]): 0; Barnyardgrass plant response rating (bamyardgrass; [10]): 0; Barnyardgrass plant response rating (bamyardgrass; [11]): 0; Barnyardgrass plant response rating (bamyardgrass; [12]): 0
